Experimental findings from PubChem BioAssay AID1996 are described below.

≈ marks a conversion by molar mass, not a printed value.

For the data set the following is noted: buffer; pH 7.4; 200.0 µM.
`Cn1c(SCc2ccc([N+](=O)[O-])cc2)nc2c(c1=O)SCC2`: the solubility (kinetic) is 1.6 µg/mL (≈ 4.77 µM).
The result for `CC(C)c1ccc(CNCCCSc2ncccn2)cc1.Cl` reads 49.1 µg/mL.
The same measure for `O=C(/C=C/c1cccc([N+](=O)[O-])c1)N1CCN(c2ccccn2)CC1`: 3.1 µg/mL (≈ 9.16 µM).
The result for `CC(O)CNCc1ccccc1C(F)(F)F.Cl` (centres undefined) reads above 40.5 µg/mL; that for `CCC(C(=O)NC1CCN(C)CC1)c1ccccc1` (centres undefined), above 39.1 µg/mL; that for `Cc1onc(-c2ccccc2Cl)c1C(=O)N1CCCC1`, above 43.6 µg/mL.
The compound `CCCNC(=O)NC(=O)CSc1cccc(C(F)(F)F)c1` returned a kinetic solubility of 12.9 µg/mL (≈ 40.3 µM).
The result for `Cn1c(C(=O)Nc2ccc(Cl)cc2)cc2cc(Cl)ccc21` reads below 0.3 µg/mL; that for `N=C1C=CC=C2C1=NC1(CCCCC1)N2O`, above 32.6 µg/mL; that for `Cc1cccc(C)c1NC(=O)CNC(=O)c1ccccc1`, 24.9 µg/mL (≈ 88.2 µM).
The result for `O=C1/C(=C\c2ccc(O)c(O)c2)SC(=S)N1Cc1ccccc1` reads 4 µg/mL (≈ 11.6 µM); that for `CCCC1NC(=S)NC(C)=C1C(C)=O` (centres undefined), above 31.8 µg/mL; that for `NC(=O)CC[C@H](NC(=O)c1ccc(F)cc1)C(=O)OCC(=O)NCc1ccc2c(c1)OCO2`, 1.2 µg/mL (≈ 2.61 µM).
The result for `COc1ccc(CC(=O)NC2CC(C)(C)NC(C)(C)C2)cc1OC.Cl` reads above 55.6 µg/mL; that for `CCCN1CCC(NC(=O)Cc2ccc(C)cc2)CC1`, 39.7 µg/mL (≈ 145 µM); that for `CC(=O)c1cccc(NC(=O)CCn2c(=O)oc3ccccc32)c1`, 19.7 µg/mL (≈ 60.7 µM).
As to `Cc1cc(Nc2ccc(Br)cc2)nc2ccccc12`, the solubility (kinetic) is below 0.3 µg/mL.
Consider `Cc1cc(S(=O)(=O)Cc2noc(-c3c(C)noc3C)n2)c(C)cc1Cl`, for which the kinetic solubility is below 0.3 µg/mL.
The compound `CN(Cc1cccs1)c1nc(-c2cccnc2)nc2ccccc12` showed a kinetic solubility of 3 µg/mL (≈ 9.02 µM).
Compound `O=C(Nc1ccc(NC(=O)c2cccs2)cc1)c1cccnc1` yielded a kinetic solubility of 0.4 µg/mL (≈ 1.24 µM).
The result for `Cc1cc([N+](=O)[O-])ccc1NC(=O)C(C)NC1CCCCC1` (centres undefined) reads above 45.8 µg/mL; that for `Cn1c(CO)nc2c3ccccc3ccc21`, above 31.8 µg/mL.
`Cc1ccc(C(=O)Nc2ccccc2C(=O)N2CCCCCC2)cc1`: the solubility (kinetic) is above 50.5 µg/mL.
`Cc1ccc2cccc(OCCCOc3ccccc3CO)c2n1` showed a kinetic solubility of 38.1 µg/mL (≈ 118 µM).
The result for `CC12CN3CC(C)(CN(C1)C3c1ccc(Cl)cc1)C2` (centres undefined) reads 30.9 µg/mL (≈ 112 µM).
On to `Cn1cnc(S(=O)(=O)Nc2ccc3c(c2)OCCO3)c1`, for which the kinetic solubility was 30.2 µg/mL (≈ 102 µM).
The result for `CCNC(=O)Nc1cc(OC)c(OC)cc1C(=O)O` reads above 40.2 µg/mL; that for `CC1CCN(C(=O)CSc2nc3ccccc3c(=O)[nH]2)CC1`, above 47.6 µg/mL; that for `Cc1cc(=O)c2c([nH]1)c(C)cc1[nH]c(C)c(C)c12`, above 36 µg/mL.
The result for `O=C(Nc1ccc(O)cc1)N1CCOCC1` reads above 33.3 µg/mL; that for `CN1CCC(C)(O)C2CCCCC21` (centres undefined), above 27.5 µg/mL.
The result for `CC(C)CC(NC(=O)C1CCCCC1)C(=O)NC(C)c1ccccc1` (centres undefined) reads 24.4 µg/mL (≈ 70.8 µM); that for `S=C(Nc1cccnc1)Nc1ccccn1`, above 34.5 µg/mL; that for `COC(=O)c1ccccc1NC(=O)CN1CCC(C)CC1`, 30.8 µg/mL (≈ 106 µM).
On to `O=C1/C(=C/c2ccc([N+](=O)[O-])cc2)CCC1C1CCCC1` (centres undefined), for which the solubility (kinetic) turned out to be 1 µg/mL (≈ 3.5 µM).
As for `CCC[C@@H]1C[C@@H](C(=O)N[C@@H]([C@H]2O[C@H](SC)[C@H](O)[C@@H](O)[C@@H]2O)[C@@H](C)O)N(C)C1.Cl`, the solubility (kinetic) is above 66.5 µg/mL.
The result for `CCC(C)(C)NC(=S)Nc1ccccc1C` reads above 35.5 µg/mL; that for `COc1ccc(NC(=O)c2cc(-c3ccccc3)on2)cc1OC`, below 0.3 µg/mL.
The result for `C=CCOc1ccc(CNc2ccc3[nH]c(=O)[nH]c3c2)cc1` reads 7.9 µg/mL (≈ 26.7 µM); that for `Cc1ccc(NC(=O)CCCN2C(=S)NC(C)(C)CC2C)cc1` (centres undefined), 45.5 µg/mL (≈ 136 µM); that for `Cc1ncc([N+](=O)[O-])n1Cc1cccc(F)c1`, above 35.3 µg/mL.
The same measure for `Cc1ccsc1CN(C)CC(=O)NCC(=O)Nc1ccc(F)c(F)c1F`: 10.8 µg/mL (≈ 28 µM).
With `Cc1ccc2c(c1)C(=O)C(=O)N2CCCOc1ccccc1`, the kinetic solubility came out at 2.7 µg/mL (≈ 9.14 µM).
The same measure for `O=C(Nc1ccc(S(=O)(=O)N2CCOCC2)cc1)c1cccnc1`: above 52.1 µg/mL.
`CC(Nc1nc(-c2ccccc2F)nc2ccccc12)c1ccccc1` (centres undefined): the kinetic solubility is 3.2 µg/mL (≈ 9.32 µM).
The result for `O=C1C=C(NCCOC23CC4CC(CC(C4)C2)C3)C2(CCCCC2)O1` reads 4 µg/mL (≈ 11.6 µM); that for `O=C(/C=C/c1ccco1)NCC1OCCc2ccccc21` (centres undefined), 41.5 µg/mL (≈ 146 µM).
The compound `CCCCn1c(SCC(=O)N2CCOCC2)nc2ccccc2c1=O` gave a solubility (kinetic) above 54.2 µg/mL.
The same measure for `CCn1c(CCC(=O)O)nc2cc(S(=O)(=O)N3CCOCC3)ccc21`: above 55.1 µg/mL; for `COc1ccc(NC(C)=O)cc1CP(=O)(c1ccccc1)c1ccccc1`: above 56.9 µg/mL.
The same measure for `O=C(CCc1nc(-c2ccccc2)no1)Nc1cccnc1`: above 44.1 µg/mL; for `CCOC(=O)C(C)Oc1c(C(=O)OC)sc2ncccc12` (centres undefined): 38.2 µg/mL (≈ 123 µM); for `Cc1ccnc(NCc2ccccc2O)c1`: 23 µg/mL (≈ 107 µM).
With `O=C(Cn1c(=O)oc2ccccc21)N1CCCC1`, the kinetic solubility is above 36.9 µg/mL.
The result for `CC(=O)c1ccc(OCC(=O)OC(C)C(=O)NC2CCCCC2)cc1` (centres undefined) reads above 52.1 µg/mL; that for `O=S(=O)(c1ccc(NCc2ccc(F)cc2)nc1)N1CCCC1`, 3 µg/mL (≈ 8.94 µM).
The result for `CCC(=O)Nc1ccc2nc3c(=O)[nH]c(=S)[nH]c3nc2c1` reads above 45.2 µg/mL; that for `CCCCOc1ccc(-c2ncc([N+](=O)[O-])cn2)cc1`, below 0.2 µg/mL; that for `Brc1ccc(-c2csc(N3CCOCC3)n2)cc1`, below 0.3 µg/mL.
The result for `COc1ccccc1NC(=O)c1ccc(NC(=O)c2ccco2)cc1` reads 8.5 µg/mL (≈ 25.3 µM).
`CCOc1ccc(C2NC(=O)c3ccccc3O2)cc1OC` (centres undefined): the solubility (kinetic) turned out to be 3.3 µg/mL (≈ 11 µM). Compared with the last compound, the solubility kinetic is about 2.6-fold lower.
The same measure for `Nc1ccccc1N1C(=O)c2cccc3cccc(c23)C1=O`: 4.3 µg/mL (≈ 14.9 µM); for `Cc1cc(OC(=O)c2cccc(Cl)c2)c([N+](=O)[O-])c(=O)[nH]1`: 40.9 µg/mL (≈ 133 µM); for `COc1ccc(C2C(C#N)=C(N)Oc3cc(O)ccc32)cc1C` (centres undefined): 31.5 µg/mL (≈ 102 µM).
The compound `Cc1ccc(Cl)cc1NC(=O)COc1ccccc1` showed a kinetic solubility of 1.9 µg/mL (≈ 6.89 µM). Against the preceding compound, the solubility kinetic is about 17-fold lower.
The same measure for `O=C(Nc1cccc(Cl)c1)C1CCN(C(=O)c2cccs2)CC1`: 48.4 µg/mL (≈ 139 µM); for `O=S1(=O)CC2NC(=S)N(c3cccc(Br)c3)C2C1` (centres undefined): above 52.1 µg/mL; for `COc1ccccc1N1CCN(C(=O)Cc2ccc(Cl)cc2)CC1`: 50.6 µg/mL (≈ 147 µM).
The same measure for `CC(=O)Nc1cccc(NC(=O)/C=C/c2ccc(S(=O)(=O)N3CCOCC3)cc2)c1`: 18.8 µg/mL (≈ 43.8 µM); for `CCOc1ccc(NC(=O)N(c2ccccc2)c2ccccc2)cc1`: 2.5 µg/mL (≈ 7.52 µM); for `CCOC(=O)c1cc(CC)sc1/N=C/C1C(=O)CCCC1=O`: 19.5 µg/mL (≈ 60.7 µM).
The same measure for `COC(=O)C1CN(C(=O)COc2ccccc2)c2ccccc2O1` (centres undefined): 48.7 µg/mL (≈ 149 µM).
Compound `O=C(Nc1cc(S(=O)(=O)N2CCCC2)ccc1Cl)c1ccncc1` returned a solubility (kinetic) above 54.9 µg/mL.
The same measure for `CCOC(=O)c1nc(Nc2ccccc2CC)c2ccccc2n1`: above 48.2 µg/mL.
`COc1ccc(OCC(=O)Nc2cc(OC)ccc2N2CCCCC2)cc1` had a solubility (kinetic) below 0.4 µg/mL.
The same measure for `N#C/C(=C\c1cccnc1)c1ccccn1`: above 31.1 µg/mL.
In the case of `CC(=O)Nc1ccc(NC(=O)CCOc2ccccc2C)cc1`, the kinetic solubility was 21.1 µg/mL (≈ 67.5 µM).
The compound `O=C(c1cc(Cl)ccc1Cl)N1CCc2ccccc21` returned a kinetic solubility of 12.1 µg/mL (≈ 41.4 µM).
`Cn1c(C(=O)N2CCN(c3ccccc3)CC2)cc2cc(Cl)ccc21` returned a kinetic solubility of 4.4 µg/mL (≈ 12.4 µM).
As for `COc1ccc(NC(=S)NCCNC(C)=O)cc1`, the kinetic solubility stood at 35.4 µg/mL (≈ 132 µM).
The same measure for `CN(Cc1ccccc1)C(=O)COC(=O)c1ccc(Cl)cc1N`: 2.4 µg/mL (≈ 7.21 µM); for `COc1cccc(N=Cc2c(O)c3ccccc3oc2=O)c1`: 15.5 µg/mL (≈ 52.5 µM); for `Cc1cnc(C(=O)N2CCN(c3ccc(C(F)(F)F)cn3)CC2)cn1`: 48 µg/mL (≈ 137 µM).
The result for `CCNS(=O)(=O)c1ccc(CCC(=O)NCc2ccccn2)cc1` reads above 52.1 µg/mL; that for `COc1ccc(Nc2oc(-c3ccc(OC)cc3)nc2C#N)cc1`, 0.7 µg/mL (≈ 2.18 µM).
The result for `S=c1nc(-c2ccccc2)[nH]c2ccc(Br)cc12` reads below 0.3 µg/mL.
`c1ccc(-c2csc(NC3CCCCC3)n2)cc1` gave a kinetic solubility of 4.1 µg/mL (≈ 15.9 µM).
The same measure for `Cl.Fc1ccc(-c2csc(Nc3ccccn3)n2)c(F)c1`: below 0.2 µg/mL; for `O=C(NC1CCCCCCC1)c1cc(-c2ccccn2)nc2ccccc12`: below 0.3 µg/mL; for `CCc1c(C)c(C#N)c2nc3ccccc3n2c1NC`: 1.3 µg/mL (≈ 4.92 µM).
In turn, `COC(=O)c1ccccc1C(=O)N1CC(O)CO1` (centres undefined) showed a kinetic solubility above 37.7 µg/mL.
The same measure for `O=c1[nH]c2ccccc2c(O)c1O`: above 26.6 µg/mL.
The result for `NS(=O)(=O)c1ccc(NC(=O)c2c(F)cccc2Cl)cc1` reads 13.3 µg/mL (≈ 40.5 µM); that for `O=C(Nc1ccc(Oc2cccc(C(F)(F)F)c2)nc1)c1cccs1`, below 0.4 µg/mL.
The result for `Clc1ccc(-c2ncc3ccccn23)c(Cl)c1` reads 22.5 µg/mL (≈ 85.5 µM).
In turn, `CNc1nnc(-c2ccc(OC)cc2)s1` had a kinetic solubility above 33.2 µg/mL.
The same measure for `O=C(Nc1cccc(S(=O)(=O)NCc2ccco2)c1)c1ccc(Cl)cc1`: 3 µg/mL (≈ 7.68 µM); for `CCCCNC(=O)COC(=O)c1cc(C)oc1C`: above 38 µg/mL.
`COc1ccccc1NC(=S)NCc1ccc(F)cc1` gave a kinetic solubility of 34 µg/mL (≈ 117 µM).
In turn, `COc1cccc(C(=O)Nc2cccc3ccccc23)c1OC` displayed a kinetic solubility of 14.5 µg/mL (≈ 47.2 µM).
The same measure for `CCN(CC(=O)NCc1ccco1)S(=O)(=O)c1ccc(OC)cc1`: above 52.9 µg/mL.
The result for `CC(C)N(C(=O)COC(=O)CCC(=O)c1cccs1)c1ccccc1` reads above 53.9 µg/mL; that for `ONC(=Nc1cccc(C(F)(F)F)c1)c1cccnc1`, above 42.2 µg/mL.
The same measure for `Cc1c(CC(=O)Nc2ccc(Cl)cc2)sc2ccc(Cl)cc12`: below 0.8 µg/mL.

For orientation: solubility (kinetic) means the concentration staying in solution when a stock, usually in DMSO, is diluted into the medium.
